In patent publication US7371773B2, “Breast cancer resistance protein (BCRP) inhibitor” (Kabushiki Kaisha Yakult Honsha, priority 2003, dated 2008) one finds EC50 data, which are given here for 42 compounds.

Values after ≈ are worked out from the molar mass of the structure shown.

By EC50 is commonly meant the midpoint of the concentration-response curve.

The subject of this experiment is A549/SN-38-4 cell line. Description: Overcoming anticancer drug resistance of A549/SN-38-4 cell line. Type of experiment: cell-based, human. The settings on record: Homo sapiens, A549; SN-38 resistance, concentration for 50% reduction of relative resistance value, 48 hours; read-out: Resistance overcoming effect EC50. Here is the method: The effect of a diphenylacrylonitrile derivative on BCRP-mediated anticancer drug resistance was studied by use of the human lung cancer A549/SN-38-4 cell line, which had acquired anticancer drug resistance through BCRP expression. The human lung cancer A549 cell line or the A549/SN-38-4 cell line was suspended in 10% FBS/Ham's F-12, and the resultant suspension was inoculated into a 96-well microplate, followed by culturing at 5% CO2 and 37° C. overnight (2×10^3 cells/50 μL/well). Thereafter, a 10% FBS/Ham's F-12 solution (25 μL) containing a diphenylacrylonitrile derivative and SN-38 or mitoxantrone was added to each of the wells, followed by culturing at 5% CO2 and 37° C. for 48 hours. After completion of culturing, the number of viable cells was counted by use of TetraColor ONE according to the attached instruction manual. […] The greater the relative resistance value, the higher the level of acquired resistance.
In the case of `COc1ccc(/C(C#N)=C/c2ccc(O)cc2)cc1OC.[Na]` [Compound 17, (Z)-2-(3,4-dimethoxy-phenyl)-3-(4-hydroxy-phenyl)-acrylonitrile sodium salt], the EC50 turned out to be 0.018 µg/mL. The value for `COc1ccc(/C(C#N)=C/c2ccc(F)cc2)cc1OC` [Compound 18, (Z)-2-(3,4-dimethoxy-phenyl)-3-(4-fluoro-phenyl)-acrylonitrile] was 0.0063 µg/mL (≈ 0.0222 µM); that for `COc1ccc(/C(C#N)=C/c2ccc([N+](=O)[O-])cc2)cc1OC` [Compound 19, (Z)-2-(3,4-dimethoxy-phenyl)-3-(4-nitro-phenyl)-acrylonitrile] was 0.019 µg/mL (≈ 0.0612 µM).

With `COc1ccc(/C(C#N)=C/c2ccccc2F)cc1OC` [Compound 20, (Z)-2-(3,4-dimethoxy-phenyl)-3-(2-fluoro-phenyl)-acrylonitrile], the EC50 turned out to be 0.053 µg/mL (≈ 0.187 µM). The same measure for `COc1ccc(/C(C#N)=C/c2ccc(C#N)cc2)cc1OC` [Compound 21, 4-[(Z)-2-cyano-2-(3,4-dimethoxy-phenyl)-vinyl]-benzonitrile]: 0.022 µg/mL (≈ 0.0758 µM); for `COc1ccc(/C(C#N)=C/c2cccc(F)c2F)cc1OC` [Compound 22, (Z)-3-(2,3-difluoro-phenyl)-2-(3,4-dimethoxy-phenyl)-acrylonitrile]: 0.022 µg/mL (≈ 0.073 µM). The value for `COc1ccc(/C(C#N)=C/c2ccc(F)cc2F)cc1OC` [Compound 23, (Z)-3-(2,4-difluoro-phenyl)-2-(3,4-dimethoxy-phenyl)-acrylonitrile] was 0.048 µg/mL (≈ 0.159 µM). The value for `COc1ccc(/C(C#N)=C/c2cc(F)ccc2F)cc1OC` [Compound 24, (Z)-3-(2,5-difluoro-phenyl)-2-(3,4-dimethoxy-phenyl)-acrylonitrile] was 0.0073 µg/mL (≈ 0.0242 µM); that for `COc1ccc(/C(C#N)=C/c2ccc(F)c(F)c2)cc1OC` [Compound 25, (Z)-3-(3,4-difluoro-phenyl)-2-(3,4-dimethoxy-phenyl)-acrylonitrile] was under 0.005 µg/mL; that for `COc1ccc(/C(C#N)=C/c2cc(F)cc(F)c2)cc1OC` [Compound 26, (Z)-3-(3,5-difluoro-phenyl)-2-(3,4-dimethoxy-phenyl)-acrylonitrile] was under 0.005 µg/mL. Regarding `COc1ccc(/C(C#N)=C/c2ccc(F)c(F)c2F)cc1OC` [Compound 27, (Z)-2-(3,4-dimethoxy-phenyl)-3-(2,3,4-trifluoro-phenyl)-acrylonitrile], the EC50 is 0.047 µg/mL (≈ 0.147 µM). The value for `COc1ccc(/C(C#N)=C/c2cc(F)cc(F)c2F)cc1OC` [Compound 28, (Z)-2-(3,4-dimethoxy-phenyl)-3-(2,3,5-trifluoro-phenyl)-acrylonitrile] was 0.011 µg/mL (≈ 0.0345 µM); that for `COc1ccc(/C(C#N)=C/c2c(F)ccc(F)c2F)cc1OC` [Compound 29, (Z)-2-(3,4-dimethoxy-phenyl)-3-(2,3,6-trifluoro-phenyl)-acrylonitrile] was 0.1 µg/mL (≈ 0.313 µM). The value for `COc1ccc(/C(C#N)=C/c2cc(F)c(F)cc2F)cc1OC` [Compound 30, (Z)-2-(3,4-dimethoxy-phenyl)-3-(2,4,5-trifluoro-phenyl)-acrylonitrile] was 0.041 µg/mL (≈ 0.128 µM). The same measure for `COc1ccc(/C(C#N)=C/c2cc(F)c(F)c(F)c2)cc1OC` [Compound 31, (Z)-2-(3,4-dimethoxy-phenyl)-3-(3,4,5-trifluoro-phenyl)-acrylonitrile]: 0.015 µg/mL (≈ 0.047 µM); for `COc1ccc(/C(C#N)=C/c2c(F)cccc2F)cc1OC` [Compound 32, (Z)-3-(2,6-difluoro-phenyl)-2-(3,4-dimethoxy-phenyl)-acrylonitrile]: 0.15 µg/mL (≈ 0.498 µM); for `COc1ccc(/C(C#N)=C/c2cccc([N+](=O)[O-])c2)cc1OC` [Compound 33, (Z)-2-(3,4-dimethoxy-phenyl)-3-(3-nitro-phenyl)-acrylonitrile]: 0.019 µg/mL (≈ 0.0612 µM). Turning to `COc1ccc(/C(C#N)=C/c2ccc(N)cc2)cc1OC` [Compound 34, (Z)-3-(4-amino-phenyl)-2-(3,4-dimethoxy-phenyl)-acrylonitrile], the 50% effective concentration (EC50) came to 0.079 µg/mL (≈ 0.282 µM).

For the compound `CCOC(=O)COc1ccc(/C=C(\C#N)c2ccc(OC)c(OC)c2)cc1` [Compound 35, ethyl [4-[(Z)-2-cyano-2-(3,4-dimethoxy-phenyl)-vinyl]-phenoxy]-acetate], the EC50 came to 0.37 µg/mL (≈ 1.01 µM). The value for `COC(=O)c1ccc(/C=C(\C#N)c2ccc(OC)c(OC)c2)cc1` [Compound 36, methyl 4-[(Z)-2-cyano-2-(3,4-dimethoxy-phenyl)-vinyl]-benzoate] was 0.2 µg/mL (≈ 0.619 µM); that for `COc1ccc(/C(C#N)=C/c2ccccc2[N+](=O)[O-])cc1OC` [Compound 37, (Z)-2-(3,4-dimethoxy-phenyl)-3-(2-nitro-phenyl)-acrylonitrile] was 0.085 µg/mL (≈ 0.274 µM); that for `COc1ccc(/C(C#N)=C/c2ccc(Cl)c([N+](=O)[O-])c2)cc1OC` [Compound 38, (Z)-3-(4-chloro-3-nitro-phenyl)-2-(3,4-dimethoxy-phenyl)-acrylonitrile] was 0.037 µg/mL (≈ 0.107 µM). Regarding `COc1ccc(/C(C#N)=C/c2cc([N+](=O)[O-])ccc2F)cc1OC` [Compound 39, (Z)-2-(3,4-dimethoxy-phenyl)-3-(2-fluoro-5-nitro-phenyl)-acrylonitrile], the EC50 is 0.027 µg/mL (≈ 0.0822 µM). With `CCOc1ccc(/C=C(\C#N)c2ccc(OC)c(OC)c2)cc1[N+](=O)[O-]` [Compound 40, (Z)-2-(3,4-dimethoxy-phenyl)-3-(4-ethoxy-3-nitro-phenyl)-acrylonitrile], the 50% effective concentration (EC50) was 0.15 µg/mL (≈ 0.423 µM). The value for `COC(=O)CCC(=O)Oc1ccc(/C=C(\C#N)c2ccc(OC)c(OC)c2)cc1` [Compound 41, 4-[(Z)-2-cyano-2-(3,4-dimethoxy-phenyl)-vinyl]-phenyl methyl succinate] was 0.041 µg/mL; that for `CCOC(=O)CCC(=O)Oc1ccc(/C=C(\C#N)c2ccc(OC)c(OC)c2)cc1` [Compound 42, 4-[(Z)-2-cyano-2-(3,4-dimethoxy-phenyl)-vinyl]-phenyl ethyl succinate] was 0.038 µg/mL. The same measure for `COc1ccc(/C(C#N)=C/c2ccc(OC(=O)CCC(=O)Oc3ccc(/C=C(\C#N)c4ccc(OC)c(OC)c4)cc3)cc2)cc1OC` [Compound 43, bis-{4-[(Z)-2-cyano-2-(3,4-dimethoxy-phenyl)-vinyl]-phenyl} succinate]: 0.12 µg/mL; for `COc1ccc(/C(C#N)=C/c2ccc(O)c([N+](=O)[O-])c2)cc1OC` [Compound 45, (Z)-2-(3,4-dimethoxy-phenyl)-3-(4-hydroxy-3-nitro-phenyl)-acrylonitrile]: 0.13 µg/mL (≈ 0.398 µM). With `COc1ccc(/C(C#N)=C/c2cc3c(cc2[N+](=O)[O-])OCO3)cc1OC` [Compound 46, (Z)-2-(3,4-dimethoxy-phenyl)-3-(6-nitro-benzo[1,3]dioxol-5-yl)-acrylonitrile], the EC50 turned out to be 0.58 µg/mL (≈ 1.64 µM). The value for `COCCOCOc1ccc(/C(C#N)=C/c2ccc(OC)c(OC)c2)cc1` [Compound 47, (Z)-3-(3,4-dimethoxy-phenyl)-2-[4-(2-methoxy-ethoxymethoxy)-phenyl]-acrylonitrile] was 0.053 µg/mL (≈ 0.143 µM); that for `COc1ccc(/C=C(\C#N)c2ccc(O)cc2)cc1OC` [Compound 48, (Z)-3-(3,4-dimethoxy-phenyl)-2-(4-hydroxy-phenyl)-acrylonitrile] was 0.013 µg/mL (≈ 0.0462 µM); that for `N#C/C(=C\c1ccc(O)cc1)c1cc(C(F)(F)F)cc(C(F)(F)F)c1` [Compound 49, (Z)-2-(3,5-bis-trifluoromethyl-phenyl)-3-(4-hydroxy-phenyl)-acrylonitrile] was 0.2 µg/mL (≈ 0.56 µM).

With `COc1ccc(/C(C#N)=C\c2ccc(O)cc2)cc1OC` [Compound 50, (E)-2-(3,4-dimethoxy-phenyl)-3-(4-hydroxy-phenyl)-acrylonitrile], the concentration for a half-maximal effect (EC50) is 0.094 µg/mL (≈ 0.334 µM). The same measure for `CCOc1ccc([N+](=O)[O-])cc1/C=C(\C#N)c1ccc(OC)c(OC)c1` [Compound 52, (Z)-2-(3,4-dimethoxy-phenyl)-3-(2-ethoxy-5-nitro-phenyl)-acrylonitrile]: 0.024 µg/mL (≈ 0.0677 µM); for `COc1ccc(/C(C#N)=C/c2ccc([N+](=O)[O-])c(O)c2)cc1OC` [Compound 53, (Z)-2-(3,4-dimethoxy-phenyl)-3-(3-hydroxy-4-nitro-phenyl)-acrylonitrile]: 0.048 µg/mL (≈ 0.147 µM); for `COc1ccc(/C(C#N)=C/c2cccc(F)c2O)cc1OC` [Compound 55, (Z)-2-(3,4-dimethoxy-phenyl)-3-(3-fluoro-2-hydroxy-phenyl)-acrylonitrile]: 0.015 µg/mL (≈ 0.0501 µM). The same measure for `COc1ccc(/C=C(\C#N)c2ccc(OC)c(OC)c2)cc1OC` [Compound 56, (Z)-2,3-bis-(3,4-dimethoxy-phenyl)-acrylonitrile]: 0.016 µg/mL (≈ 0.0492 µM); for `COCCOCOc1ccc(/C=C(\C#N)c2ccc(OC)c(OC)c2)cc1F` [Compound 58, (Z)-2-(3,4-dimethoxy-phenyl)-3-[3-fluoro-4-(2-methoxy-ethoxymethoxy)-phenyl]-acrylonitrile]: 0.033 µg/mL (≈ 0.0852 µM); for `COc1ccc(/C(C#N)=C/c2ccc(O)c(F)c2)cc1OC` [Compound 59, (Z)-2-(3,4-dimethoxy-phenyl)-3-(3-fluoro-4-hydroxy-phenyl)-acrylonitrile]: 0.043 µg/mL (≈ 0.144 µM).

For `COc1ccc(/C=C(\C#N)c2ccc(OC(C)=O)cc2)cc1OC` [Compound 61, 4-[(Z)-1-cyano-2-(3,4-dimethoxy-phenyl)-vinyl]phenyl acetate], the 50% effective concentration (EC50) worked out at 0.024 µg/mL. The value for `COc1ccc(/C(C#N)=C/c2ccc(C=O)cc2)cc1OC` [Compound 62, (Z)-2-(3,4-dimethoxy-phenyl)-3-(4-formyl-phenyl)-acrylonitrile] was 0.11 µg/mL (≈ 0.375 µM); that for `CCOc1cc(/C(C#N)=C/c2ccc(OC)c(OC)c2)ccc1OC(C)=O` [Compound 63, 4-[(Z)-1-cyano-2-(3,4-dimethoxy-phenyl)-vinyl]-2-ethoxy-phenyl acetate] was 0.024 µg/mL.
